Biological target: T1, SLC25A1 (mitochondrial citrate carrier) (Homo sapiens, UniProt P53007)
T1 construct: Histidine-tagged recombinant purified SLC25A1
Experiment: SPR (Biacore […], NTA chip, […] steady-state fit)
Assay type: binding

T1 sequence (P53007 14-311): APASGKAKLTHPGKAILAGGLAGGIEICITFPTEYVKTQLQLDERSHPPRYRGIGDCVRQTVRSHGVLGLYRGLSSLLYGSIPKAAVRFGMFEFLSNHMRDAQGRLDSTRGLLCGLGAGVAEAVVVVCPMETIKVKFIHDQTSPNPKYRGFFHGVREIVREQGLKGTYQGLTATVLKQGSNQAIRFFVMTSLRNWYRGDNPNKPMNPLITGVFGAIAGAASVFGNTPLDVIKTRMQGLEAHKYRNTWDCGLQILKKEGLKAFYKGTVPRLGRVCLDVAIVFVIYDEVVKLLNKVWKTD

| Compound | Kd |
| --- | --- |
| O=C(O)c1ccccc1NS(=O)(=O)c1ccc(Cl)c([N+](=O)[O-])c1 [CTPI-2] | 3.5 µM |
| O=C(O)c1ccc(Cl)c(S(=O)(=O)Nc2cccc([N+](=O)[O-])c2)c1 [CTPI-1] | 63.6 µM |
